Measured values published in patent US20220304929A1, “LIPIDS FOR DELIVERY OF CHARGED MATERIAL, FORMULATIONS THEREOF AND METHOD FOR MAKING SAME” (INTEGRATED NANOTHERAPEUTICS INC., priority 2019, published 2022).

Legend:
[1] = test system: factor VII (FVII); assay: LNP-siRNA activity in the mouse Factor VII model; assay type: in vivo; settings: C57Bl/6 mice, i.v. tail vein, 0.03-0.3 mg/kg siRNA, 24 hours post-injection
Method: Lipid nanoparticle (LNP) formulations containing cationic lipids of the disclosure and FVII siRNA were injected via a tail vein in C57Bl/6 wild-type mice and the levels of FVII in plasma was measured post injection. The mice were injected with LNP-siRNA at doses of 0.03 (left bar), 0.1 (middle bar) and 0.3 mg/kg (right bar). The cationic lipids incorporated in the LNPs were INT-A001, INT-A002, INT-A003 and INT-A007.
LNPs prepared as described in Example 2 containing siRNA against factor VII (FVII) were diluted with PBS such that injection volumes were maintained at 10 mL/kg body weight and administered (based on siRNA concentration) intravenously via tail vein in 6 to 8 weeks old female C57Bl/6 mice (Charles River Laboratories, Wilmington, Mass.). At 24 hours post-injection, animals were euthanized and blood was collected via intracardiac sampling. Blood samples were allowed to coagulate at 4° C. overnight and the serum was separated followed by centrifugation for 15 min at 12,000 rpm. The serum FVII levels were determined using the Biophen VII chromogenic assay (Aniara, Mason, Ohio) according to the protocol of the manufacturer.

[2] = Peptide incorporation into LNP (Peptide:Lipid ratio; BCA or CBQCA protein quantification); assay type: physicochemical
Method: (§1) Lipid concentrations were determined by measuring total cholesterol using the Cholesterol E enzymatic assay kit from Wako Chemicals USA (Richmond, Va.).
Quantification of protein/peptide was performed with the use of either the BCA Protein Assay (Pierce) or the CBQCA Protein Quantitation Kit (Invitrogen) according to the manufacturer's instructions.

[3] = HA incorporation into LNP (HA:Lipid ratio); assay type: physicochemical; settings: LNP containing ionizable lipid and HA (8-15 kDa)
Method: as §1
Hyaluronic acid was used as an example of anionic cargos. LNPs were prepared as described in Example 2 containing HA with a molecular weight of 8-15 kDa.

[4] = test system: luciferase expressing human prostate cells (22Rv1); assay: LNP-siRNA luciferase gene silencing in cultured 22Rv1 cells; assay type: cell-based; settings: 1 ug/mL siRNA, 16-24 hr
Method: Cells were treated with lipid nanoparticle (LNP) formulations containing ionizable lipids of the disclosure and Luciferase siRNA at concentrations of 1.0 (left bar), 0.3 (middle bar) and 0.1 μg/mL (right bar). The level of luminescence was measured post treatment. The ionizable lipids incorporated in the LNPs were 2-(dimethylamino)ethyl (±)-syn-9,10-dilinoleoxystearate (INT-A001), 3-(diethylamino)propyl (±)-syn-9,10-dilinoleoxystearate (INT-A002), 3-(dimethylamino)propyl (±)-syn-9,10-dilinoleoxystearate (INT-A003), 2-(diethylamino)ethyl (±)-syn-9,10-dilinoleoxystearate (INT-A004), 3-(dimethylamino)propyl (12R)-linoleoxyoleate (INT-A005), 3-(diethylamino)propyl (syn-9,10,12R)-trilinoleoxystearate (INT-A006), and 3-(diethylamino)propyl (±)-syn-9,10-bis(2-hexyldecanoyloxy)stearate (INT-A007).
The level of luminescence was measured 16-24 hr post treatment and the relative luminescence is ranked from highest (left) to lowest (right).
The activity of the ionizable lipids in vitro was evaluated in luciferase expressing human prostate cells (22Rv1). LNPs containing siRNA against firefly luciferase were prepared as described in Example 2. […] Equal amounts of Steady-Glo reagent (Promega) was added to each sample and the level of luminescence was determined using a Synergy LX plate reader (BioTek). […]

[5] = LNP particle size and polydispersity by dynamic light scattering; assay type: physicochemical
[6] = RNA or antisense oligonucleotide encapsulation efficiency (Quant-iT Ribogreen RNA / Oligreen ssDNA assays); assay type: physicochemical
Method: The RNA or antisense oligonucleotide encapsulation efficiency was determined using the Quant-iT Ribogreen RNA or Oligreen ssDNA Assays, respectively (Life Technologies, Burlington, ON). Briefly, LNP was incubated at 37° C. for 10 min in the presence or absence of 1% Triton X-100 (Sigma-Aldrich, St. Louis, Mo.) followed by the addition of the Ribogreen or Oligreen reagent. The fluorescence intensity (Ex/Em: 480/520 nm) was determined and samples treated with Triton X-100 represent total nucleic acid while untreated samples represent unencapsulated nucleic acid.
To prepare the LNPs, ionizable lipid, DSPC, cholesterol and PEG-DMPE were dissolved in ethanol. The siRNA was dissolved in pH 4.0-6.2 buffer composed of 10-50 mM acetate, succinate or citrate. In select cases, 10-50 mM 4-(2-Hydroxyethyl)piperazine-1-ethanesulfonic acid (HEPES) or 2-(N-Morpholino)ethanesulfonic acid (MES) buffer was used. LNP were prepared by rapidly mixing the lipid components in ethanol (in molar ratio of 50/10/38.5/1.5 of […]) with nucleic acids in aqueous buffer at a volumetric flow rate ratio of 1:3 (ethanol to aqueous, combined flow rate >12 mL/min) at room temperature. Typically, siRNA/lipids ratios were targeted for 0.056 wt/μmol. The product was then dialyzed against 1× phosphate-buffered saline (PBS) at pH 7.4 for 24 hours to remove residual ethanol and to raise the pH. PBS was refreshed after 4 hours.

[7] = LNP containing ionizable lipid and a 2.0 kDa acidic peptide (net charge -3)
[8] = LNP containing ionizable lipid and a 4.2 kDa acidic peptide (net charge -3)
[9] = LNP containing ionizable lipid and HA (8-15 kDa)
[10] = LNP containing ionizable lipid and antisense oligonucleotide
[11] = LNP containing ionizable lipid and siRNA

SMILES: CCCCCCCCC(CCCCCC)C(=O)O[C@@H](CCCCCCCC)[C@@H](CCCCCCCC(=O)OCCCN(CC)CC)OC(=O)C(CCCCCC)CCCCCCCC (mixture of isomers) [INT-A007, 3-(Diethylamino)propyl (±)-syn-9,10-bis(2-hexyldecanoyloxy)stearate]
- Activity in mediating FVII gene-silencing (residual serum FVII levels) [1]: active in mediating gene-silencing
- Peptide:Lipid [2, 7]: 0.075 wt/wt
- Peptide:Lipid [2, 8]: 0.162 wt/wt
- HA:Lipid [3]: 0.096 wt/wt
- Relative activity in silencing of the firefly luciferase gene (luminescence) [4]: most active
- Particle Diameter [5, 9]: 58 nm
- Polydispersity index (PDI) [5, 9]: 0.065
- Particle Diameter [5, 7]: 79 nm
- Polydispersity index (PDI) [5, 7]: 0.019
- Particle Diameter [5, 8]: 52 nm
- Polydispersity index (PDI) [5, 8]: 0.049
- Particle Diameter [5, 10]: 55 nm
- Polydispersity index (PDI) [5, 10]: 0.070
- Particle Diameter [5, 11]: 59 nm
- Polydispersity index (PDI) [5, 11]: 0.021
- Encapsulation Efficiency [6, 10]: 84%
- Encapsulation Efficiency [6, 11]: 84%
